Data reported in patent US9801850B2, “Antibacterial agent” (OSAKA UNIVERSITY, priority 2009, dated 2017).
In brackets after ≈: the same amount, converted by molar mass.

Tests used:
[1] = system: MSSA clinical isolate No. 3; experiment: MIC, broth microdilution (Example 2, Table 6); assay type: cell-based, Staphylococcus aureus
[2] = system: MSSA clinical isolate No. 1; experiment: MIC, broth microdilution (Example 2, Table 6); assay type: cell-based, Staphylococcus aureus
[3] = system: MSSA clinical isolate No. 4; experiment: MIC, broth microdilution (Example 2, Table 6); assay type: cell-based, Staphylococcus aureus
[4] = system: Candida albicans ATCC24433; experiment: MIC with respect to fungi, broth microdilution (Table 8); assay type: cell-based; settings: RPMI1640/MOPS (pH 7.0), 35° C., 24 to 48 hours
Experimental: (§1) Regarding the respective type strains shown in Tables 7 and 8 below, the MIC measurement was performed using the antibacterial agent solutions of Example 2 in the same manner as described in Section (2) of Example 1, except for the following. The antibacterial agent solutions were prepared by dissolving the EGCG derivatives of Example 2 in 100% DMSO and then diluting the resultant mixtures with sterile distilled water. The respective strains were derived from ATCC or NCTC. As Moraxella catarrhalis and Aspergillus fumigatus, clinical isolates thereof without an acquired resistance mechanism were used. For nutrient-rich bacteria, namely, Streptococcus pneumoniae ATCC49619, Streptococcus pyogenes ATCC19615, Streptococcus agalactiae ATCC13813, Moraxella catarrhalis, and Haemophilis influenzae ATCC49766, Strepto Haemo supplement (Eiken Chemical Co., Ltd.) was added to media for culturing them. The MIC measurement with respect to fungi was carried out by a broth microdilution method using a RPMI1640/MOPS (pH 7.0) medium in accordance with CLSI guidelines. About 2×10^3 cells/ml of fungi were inoculated to the medium. After the culture at 35° C. for 24 to 48 hours, the MIC was determined. Also, regarding the antibacterial agent solution of Comparative Example 2, the MIC was measured in the same manner.

[5] = system: Candida tropicalis ATCC750; experiment: as above; assay type: cell-based; settings: RPMI1640/MOPS (pH 7.0), 35° C., 24 to 48 hours
Experimental: as §1

Candida krusei ATCC6258 = experiment: as above; assay type: cell-based; settings: RPMI1640/MOPS (pH 7.0), 35° C., 24 to 48 hours
Experimental: as §1

[6] = system: Candida glabrata ATCC90030; experiment: as above; assay type: cell-based; settings: RPMI1640/MOPS (pH 7.0), 35° C., 24 to 48 hours
Experimental: as §1

[7] = system: Cryptococcus neoformans ATCC90112; experiment: as above; assay type: cell-based; settings: RPMI1640/MOPS (pH 7.0), 35° C., 24 to 48 hours
Experimental: as §1

Aspergillus fumigatus = experiment: as above; assay type: cell-based; settings: Aspergillus fumigatus clinical isolate; RPMI1640/MOPS (pH 7.0), 35° C., 24 to 48 hours
Experimental: as §1

[8] = system: Candida parapsilosis ATCC22019; experiment: as above; assay type: cell-based; settings: RPMI1640/MOPS (pH 7.0), 35° C., 24 to 48 hours
Experimental: as §1

[9] = system: MSSA clinical isolate No. 2; experiment: MIC, broth microdilution (Example 2, Table 6); assay type: cell-based, Staphylococcus aureus
[10] = system: MRSA clinical isolate No. 9; experiment: MIC, broth microdilution (Example 2, Table 6); assay type: cell-based, Staphylococcus aureus
MSSA ATCC29213 = experiment: MIC, broth microdilution (Example 2, Table 6); assay type: cell-based, Staphylococcus aureus
[11] = system: MRSA clinical isolate No. 11; experiment: MIC, broth microdilution (Example 2, Table 6); assay type: cell-based, Staphylococcus aureus
MSSA ATCC12600 = experiment: MIC, broth microdilution (Example 2, Table 6); assay type: cell-based, Staphylococcus aureus
[12] = system: MRSA clinical isolate No. 6; experiment: MIC, broth microdilution (Example 2, Table 6); assay type: cell-based, Staphylococcus aureus
[13] = system: S. aureus NCTC8325 (MSSA); experiment: MIC, broth microdilution (Example 2, Table 6); assay type: cell-based, Staphylococcus aureus
Experimental: Methicillin-susceptible Staphylococcus aureus (MSSA) NCTC8325 and methicillin-resistant Staphylococcus aureus (MRSA) ATCC43300 were used as bacteria. The bacteria of each type were cultured using Mueller-Hinton Broth (MH-broth, Difco) as a medium. Then, the minimum inhibitory concentration (MIC) of each of the EGCG derivatives was measured by a broth microdilution method in accordance with the Clinical and Laboratory Standards Institute (CLSI) guidelines (hereinafter the same).
First, each of the EGCG derivatives was dissolved in 100% dimethyl sulfoxide (DMSO, Wako Pure Chemical Industries, Ltd.) so that the concentration thereof became 5120 μg/ml. The resultant solution was diluted with DMSO or sterile distilled water so as to prepare two-fold dilution series of antibacterial agent solutions. […] Each of these antibacterial agent solutions was dispensed to wells of a 96-well plate. The concentration of the EGCG derivative in the antibacterial agent solution dispensed to the wells was set to be 10 times as high as the final concentration. On the other hand, the bacteria were cultured in the MH-broth at 37° C. overnight, and the thus-obtained pre-culture solution was diluted with a new MH-broth so that the concentration thereof in the MH-broth became 10^−4 (10^4-fold dilution), thus preparing a bacterial culture solution of about 1×10^5 CFU/ml (CFU: Colony Forming Unit, the number of viable cells). The bacterial culture solution was further added to each well, and the mixture was cultured at 37° C. for 18 hours. The ratio (volume ratio) between the antibacterial agent solution and the bacterial culture solution added to each well was set to 1:9 (the antibacterial agent solution:the bacterial culture solution), and the volume of the mixture of them per well was set to 100 μl in total. The final concentration of the EGCG derivative in the mixture was set to 8 μg/ml to 512 μg/ml, and the number of viable cells in the mixture was set to about 1×10^5 CFU/ml. Then, after the completion of the culture, the MIC was determined. Also, the turbidity (OD600 nm) was measured using a plate reader so as to identify minor differences.
Each of the EGCG derivatives was dissolved in 100% DMSO so that the concentration thereof became 1280 μg/ml. The thus-obtained solutions were diluted with sterile distilled water, thus preparing antibacterial agent solutions.
As Comparative Example 2, the same procedures as in Example 2 were performed, except that unsubstituted EGCG was used as an antibacterial agent instead of the EGCG derivatives of Example 2. Furthermore, as a control, the same procedures as in Example 2 were performed, except that sterile distilled water was used instead of the antibacterial agent solutions containing the EGCG derivatives.

[14] = system: MSSA clinical isolate No. 5; experiment: MIC, broth microdilution (Example 2, Table 6); assay type: cell-based, Staphylococcus aureus
[15] = system: MRSA clinical isolate No. 7; experiment: MIC, broth microdilution (Example 2, Table 6); assay type: cell-based, Staphylococcus aureus
[16] = system: MRSA clinical isolate No. 8; experiment: MIC, broth microdilution (Example 2, Table 6); assay type: cell-based, Staphylococcus aureus
MSSA ATCC25923 = experiment: MIC, broth microdilution (Example 2, Table 6); assay type: cell-based, Staphylococcus aureus
[17] = system: MRSA clinical isolate No. 12; experiment: MIC, broth microdilution (Example 2, Table 6); assay type: cell-based, Staphylococcus aureus

Row | Molecule | MIC [1] [µg/mL] | MIC [2] [µg/mL] | MIC [3] [µg/mL] | MIC [4] [µg/mL] | MIC [5] [µg/mL] | MIC (Candida krusei ATCC6258) [µg/mL] | MIC [7] [µg/mL] | MIC (Aspergillus fumigatus) [µg/mL] | MIC [8] [µg/mL] | MIC [9] [µg/mL] | MIC (MSSA ATCC29213) [µg/mL] | MIC [11] [µg/mL] | MIC (MSSA ATCC12600) [µg/mL] | MIC [12] [µg/mL] | MIC [13] [µg/mL] | MIC [14] [µg/mL] | MIC [15] [µg/mL] | MIC [16] [µg/mL] | MIC (MSSA ATCC25923) [µg/mL] | MIC [17] [µg/mL] | also measured
1 | EGCG-oleate [EGCG-C18E] | 32 | 32 | 32 | 16 | 32 | 16 | 16 | 32 | 16 | 32 | 32 | 64 | 32 | 32 | 16 | 32 | 16 | 8 | 32 | 32 | MIC [6]: 16 µg/mL; MIC [10]: 64 µg/mL
2 | EGCG-palmitoleate [EGCG-C16E] | 16 | 16 | 16 | 16 | 16 | 16 | 8 | 16 | 16 | 16 | 16 | 64 | 16 | 16 | 16 | 16 | 16 | 8 | 32 | 16 | MIC [6]: 16 µg/mL; MIC [10]: 64 µg/mL
3 | EGCG-stearate [EGCG-C18] | 32 | 32 | 32 | 16 | 32 | 16 | 16 | 32 | 16 | 32 | 32 | 64 | 32 | 32 | 16 | 32 | 32 | 16 | 32 | 64 | MIC [6]: 16 µg/mL
4 | O=C(O[C@@H]1Cc2c(O)cc(O)cc2O[C@@H]1c1cc(O)c(O)c(O)c1)c1cc(O)c(O)c(O)c1 [EGCG, Epigallocatechin gallate, reference compound] | >128 | >128 | >128 | 64 (≈ 140 µM) | 64 (≈ 140 µM) | 64 (≈ 140 µM) | 64 (≈ 140 µM) | 64 (≈ 140 µM) | 64 (≈ 140 µM) | >128 | >128 | >128 | >128 | >128 | 128 (≈ 279 µM) | 128 (≈ 279 µM) | >128 | 128 (≈ 279 µM) | >128 | >128 | MIC [6]: 32 µg/mL (≈ 69.8 µM); MIC [10]: >128 µg/mL
5 | EGCG-α-linoleate [EGCG-C18TE] | 16 | 16 | 16 | 16 | 16 | 16 | 8 | 16 | 16 | 16 | 16 | 64 | 16 | 16 | 4 | 16 | 16 | 8 | 32 | 16 | MIC [10]: 64 µg/mL
6 | EGCG-linolate [EGCG-C18DE] | 16 | 16 | 16 | 16 | 32 | 16 | 8 | 32 | 16 | 16 | 16 | 32 | 16 | 32 | 16 | 16 | 16 | 8 | 32 | 16 | MIC [10]: 64 µg/mL
7 | EGCG-dioctanoate [EGCG-C8×2] | 16 | 16 | 16 | 32 | 32 | 16 | 16 | 32 | 16 | 16 | 16 | 32 | 8 | 16 | 4 | 16 | 16 | 4 | 16 | 16 | MIC [6]: 16 µg/mL; MIC [10]: 16 µg/mL
8 | EGCG-palmitate [EGCG-C16] | 16 | 16 | 16 | 32 | 32 | 16 | 8 | 32 | 16 | 16 | 16 | 32 | 16 | 16 | 8 | 16 | 16 | 8 | 16 | 16 | MIC [6]: 16 µg/mL; MIC [10]: 32 µg/mL
